The source of these data is patent US10342874B2, “Glucosamine peptide compounds for treating liver metabolic disorders” (Far Eastern Memorial Hospital, priority 2017, dated 2019).

The test system of test [1] is C57BL/6JNarl male mice fed with high fat diet. Put plainly: Fatty liver animal test: liver appearance and liver weight. The settings on record: HFD mice, 2 mg/kg intraperitoneal, three times a week for two weeks; compared with Group 2 (HFD). In kind it is in vivo. The procedure: (§1) 24 C57BL/6JNarl male mice at 5 weeks of age were purchased from the National Laboratory Animal Center and housed in the laboratory animal room of the Far Eastern Memorial Hospital at a constant temperature of 22° C., 55% humidity, automatic air regulation (ventilation rate of 12 times per hour), automatic light control (12:12 hour light/dark cycle), and provided with free access to water and chow diet D12450B (Research Diets, Inc.) for two weeks.
(§2) Then the 24 mice (7 weeks of age) were randomly divided into four groups, each containing six mice—Group 1 is the chow diet (CD) control group fed with chow diet D12450B; Group 2 is the high fat diet (HFD) group fed with high fat diet (i.e., modified D12492); Group 3 is the HFD+Compound A treatment group provided with high fat diet and Compound A; and Group 4 is the HFD+Compound B treatment group provided with high fat diet and Compound B.
(§3) Group 1 was fed with chow diet for 18 weeks, followed by 2 more weeks of chow diet, and then given an intraperitoneal injection of saline, without receiving Compound A or Compound B. Group 2, the HFD group, was fed with high fat diet for 18 weeks, followed by 2 more weeks of high fat diet, and then given an intraperitoneal injection of saline, without receiving Compound A or Compound B. Group 3, the HFD+Compound A treatment group, was fed with high fat diet for 18 weeks and then given an intraperitoneal injection of 2 mg/kg of Compound A per mouse, three times a week (once every one or two days) for two weeks, a total of six injections of Compound A. Group 4, the HFD+Compound B treatment group, was fed with high fat diet for 18 weeks and then given an intraperitoneal injection of 2 mg/kg of Compound B per mouse, three times a week (once every one or two days) for two weeks, a total of six injections of Compound B. After completion of feeding and treatment described above, the mice were weighed and euthanized with CO2, and their blood and liver tissue specimens were collected for analysis.

The subject of test [2] is HepG2 cells. Briefly: Oleic acid-induced in vitro fatty liver cell model, lipid droplets by Oil Red O staining quantified by Image J. In kind it is cell-based, human. The conditions noted are these: for lipid droplet accumulation: HepG2, 10 nM compound for 24 hours. The procedure: Human hepatocellular carcinoma cell line HepG2 was cultured in Dulbecco's modified Eagle's medium (DMEM, containing 4,500 mg/L D-glucose and L-glutamine) supplemented with 10% fetal bovine serum and 1% penicillin/streptomycin at 37° C. incubator with 5% CO2. To induce in vitro fatty liver cell model on HepG2 with oleic acid-bovine serum albumin complex (Sigma-Aldrich, USA), HepG2 cells were cultured in a 24-well plate at a cell volume of 8×10^4; after 18 to 24 hours when a 70% confluence of cell growth has reached, 0.1 mM of oleic acid was added for culturing for 24 hours. After the replacement of culture medium containing oleic acid, 0.5 μg/mL, 1 μg/mL, 2.5 μg/mL, 5 μg/mL and 10 μg/mL of Compound A were added to DMEM containing 2% fetal bovine serum for culturing for 8 hours; each experimental group performed four repetitions.
Oil Red O (ORO) staining was used to confirm the level of lipid droplets, e.g., amount of red particles, in HepG2. After 24 hours of oleic acid treatment, HepG2 cells were fixed with 4% paraformaldehyde for 15 minutes, followed by phosphate-buffered saline (PBS) washing for three times and then ORO staining for 1 hour. After staining, the cells were washed with PBS for three times, followed by hematoxylin staining for 5 minutes. The coverslip was reversely placed on the slide and sealed with glycerine for observation with optical microscope; images were taken and saved as electronic files.
Intracellular lipid droplets were quantified by Image J (National Institutes of Health, NIH) after adjustment to a proper threshold value. Images with at least 20 cells were analyzed and quantified by Image J with the “analyze particles” functions in threshold single sections with size (pixel^2) setting from 0.1 to 10.
(§4) Similar to Example 1, to induce in vitro fatty liver cell model on HepG2 with oleic acid, HepG2 cells were cultured in a 24-well plate at a cell volume of 8×10^4 and added with 0.1 mM of oleic acid for 24-hour culturing. After the replacement of culture medium containing oleic acid, 10 μg/mL of Compound A was added to DMEM for culturing for 4 hours, 8 hours, 16 hours, and 24 hours; each time point performed four repetitions. ORO staining was used to confirm the level of lipid droplets in HepG2, and their number and size were quantified by Image J.
Compound C, which is a derivative of Compound A, was also tested to further investigate the effect of glucosamine peptide compounds defined herein, including Compound A and its derivatives, on the formation of intracellular lipid droplets. Similar to Example 2, to induce in vitro fatty liver cell model on HepG2 with oleic acid, HepG2 cells were cultured in a 24-well plate at a cell volume of 8×10^4 and added with 0.1 mM of oleic acid for 24-hour culturing. After the replacement of culture medium containing oleic acid, 10 nM of Compound A and 10 nM of Compound C were individually added to different DMEMs for culturing for 24 hours, and four repetitions were performed for both Compound A and Compound C. ORO staining was used to confirm the level of lipid droplets in HepG2, and their number and size were quantified by Image J.

For test [3], the system named is C57BL/6JNarl male mice fed with high fat diet. Put plainly: Blood biochemistry of fatty liver mice. The settings on record: HFD mice; for aspartate transaminase (AST) and alanine transaminase (ALT) compared with Group 2: 2 mg/kg, statement in words; for ALT / AST / GLU / T-CHO / TG: serum, 2 mg/kg intraperitoneal, six injections in two weeks, mean ± SD, six mice. In kind it is in vivo. The procedure: as §1, §2, §3
Blood samples from mice of each group in Example 4 were tested for measurement of serum aspartate transaminase (AST), alanine transaminase (ALT), total cholesterol (T-CHO), triglyceride (TG) and glucose (GLU). AST and ALT are common measures of liver function.

The subject of test [4] is HuH-7 cells. Briefly: Oleic acid-induced in vitro fatty liver cell model, lipid droplets by Oil Red O staining quantified by Image J. In kind it is cell-based, human. The procedure: as §4, with “Another human hepatocellular carcinoma cell line HuH-7 was used to test the temporal effect of Compound A to further confirm the effect of Compound A on intracellular lipid droplets. Similar” for “Similar”, “2,” for “1,”, “HuH-7” for “HepG2”, “HuH-7,” for “HepG2,”

Test [5] relates to C57BL/6JNarl male mice fed with high fat diet. Put plainly: Analysis of liver tissue fibrosis (Masson's Trichrome, collagen proportionate area). In kind it is in vivo. The conditions noted are these: HFD mice; for percentage of collagen proportionate area (CPA) in liver tissue: 2 mg/kg intraperitoneal, compared with Group 2 (HFD). The procedure: as §1
(§5) Then the 24 mice (7 weeks of age) were randomly divided into four groups, each containing six mice—Group 1 is the chow diet (CD) control group fed with chow diet D12450B; Group 2 is the high fat diet (HFD) group fed with high fat diet (i.e., modified D12492); Group 3 is the HFD+Compound A treatment group provided with high fat diet and Compound A; and Group 4 is the HFD+Compound B treatment group provided with high fat diet and Compound B. […]
Nuance multispectral image analysis module (PerknElmer, Inc) was used to quantify the collagen proportionate area (CPA), as shown in FIG. 6E. […]

Test [6] has the same test system. Put plainly: Analysis of fat amount in liver tissue (H&E stain, Image J). In kind it is in vivo. The conditions noted are these: HFD mice; for percentage of area of lipid droplets relative to the total field of view in liver tissue: 2 mg/kg intraperitoneal, compared with Group 2 (HFD). The method, then: as §1, §5
Image J was used to quantify the percentage of area of lipid droplets relative to the total field of view in mice liver tissues (FIG. 5E). […]

Take `CC(=O)N[C@@H]1[C@@H](O[C@H](C)C(=O)N[C@@H](C)C(=O)N[C@H](CCC(=O)O)C(N)=O)[C@H](O)[C@@H](CO)O[C@H]1O` [Compound A]: the “liver appearance (size)” value in test [1] is given as “smaller livers than Group 2”. Besides, in test [2], the lipid droplet accumulation entry is listed as “reduced significantly”. For the same compound, in test [2] (HepG2, 10 μg/mL), the “treatment time after which significant reduction of lipid droplets is observed” value turned out to be 4 h and the “treatment time at which maximum reduction of lipid droplets occurs” value stood at 8 h. Moreover, the “number and size of lipid droplets” value in test [2] (HepG2, 10 μg/mL compound for 4, 8, 16 and 24 hours) is “decrease with the increase of treatment time of Compound A in a time-dependent manner”. Moreover, the “number and size of lipid droplets” value in test [2] (HepG2, 0.1 mM oleic acid 24 h, then 0.5-10 μg/mL compound for 8 hours) was “decrease with the increase of Compound A concentration in a dose-dependent manner”. Moreover, in test [3], the “aspartate transaminase (AST) and alanine transaminase (ALT) compared with Group 2” value is “significantly lower”; the ALT worked out at 240.5 ± 83.1 U/L; the AST turned out to be 200.0 ± 68.4 U/L; the GLU came to 287.2 ± 60.0 mg/dL. In test [3], this compound yielded a T-CHO of 225.3 ± 53.2 mg/dL and a TG of 30.1 ± 9.8 mg/dL. In test [4] (HuH-7, 10 μg/mL), the “treatment time after which significant reduction of lipid droplets is observed” value stood at 4 h and the “treatment time at which maximum reduction of lipid droplets occurs” value is 16 h. In addition, the “number and size of lipid droplets” value in test [4] (HuH-7, 10 μg/mL compound for 4, 8, 16 and 24 hours) is “decrease with the increase of treatment time of Compound A in a time-dependent manner”. Also, the “percentage of collagen proportionate area (CPA) in liver tissue” value in test [5] was “much lower percentage of collagen proportionate area than Group 2”. Also, the “percentage of area of lipid droplets relative to the total field of view in liver tissue” value in test [6] is recorded as “much lower percentage of area of lipid droplets relative to the total field of view than Group 2”.
As to `CCCCCCCCCCCCCCCC(=O)OCC(COP(=O)(O)OCCNC(=O)[C@H](C)NC(=O)CC[C@@H](NC(=O)[C@H](C)NC(=O)C(C)O[C@H]1[C@H](O)[C@@H](CO)OC(O)[C@@H]1NC(C)=O)C(N)=O)OC(=O)CCCCCCCCCCCCCCC` (stereo partly shown) [Compound B], in test [1], the average liver weight result is “less than Group 2”, the “liver appearance (size)” value is listed as “smaller livers than Group 2” and the “ratio of liver weight to body weight (average liver weight percentage)” value is listed as “smaller average liver weight percentage than Group 2”. Also, in test [3], the “aspartate transaminase (AST) and alanine transaminase (ALT) compared with Group 2” value is reported as “significantly lower”; the ALT turned out to be 185.4 ± 83.1 U/L; the AST is 191.3 ± 74.0 U/L; the GLU is 274.4 ± 31.0 mg/dL. In test [3], this compound came in with a T-CHO of 234.0 ± 33.6 mg/dL and a TG of 42.2 ± 18.9 mg/dL. The “percentage of collagen proportionate area (CPA) in liver tissue” value in test [5] is “much lower percentage of collagen proportionate area than Group 2”. Further, the “alleviating liver fibrosis complicated with fatty liver, comparison of the compounds” value in test [5] (Group 4 compared with Group 3) is “more effective than Compound A”. Besides, the “percentage of area of lipid droplets relative to the total field of view in liver tissue” value in test [6] was “much lower percentage of area of lipid droplets relative to the total field of view than Group 2”. The “alleviating accumulation of hepatic fat induced by high fat diet, comparison of the compounds” value in test [6] (Group 4 compared with Group 3) is reported as “more effective than Compound A”.
As for `CCCCOC(=O)[C@@H](CCC(N)=O)NC(=O)[C@H](C)NC(=O)[C@@H](C)OC1C(NC(C)=O)[C@@H](O)OC(CO)[C@H]1O` (stereo partly shown) [Compound C], in test [2], the lipid droplet accumulation entry is recorded as “reduced significantly”.
